Read-outs that look alike come from different tables or passages of the source.
Target: human NAMPT (Homo sapiens, UniProt P43490)
Test: Human recombinant enzyme assay (NMN fluorescence biochemical assay, activation of NAMPT)
Procedure: Compounds described herein were assayed for their ability to stimulate the synthesis of nicotinamide mononucleotide (NMN) by the enzyme NAMPT. The human recombinant enzyme assay measures the activation of the enzyme activity by compounds using recombinant enzyme and substrates in a buffered cell-free system. The assay conditions closely mimic cellular environments. Dose responses were measured using an assay to detect the formation of nicotinamide mono-nucleotide. All experiments were performed in the 384-well format. […] Enzyme reactions were initiated with the addition of 10 μL of a solution containing the substrates. The final assay conditions were as follows: 6 nM human NAMPT, 2.5 mM ATP, 20 μM PRPP and 150 μM nicotinamide in 50 mM HEPES, pH 7.2, 1 mM DTT, 1 mM CHAPS 50 mM NaCl, 100 mM MgCl2. Following an incubation of 60 min at ambient temperature, 10 μL of 20% acetophenone in DMSO was added, followed by 10 μL of 2 M KOH and 40 μL of formic acid. The plates were read for fluorescence (Excitation/Emission=355 nm/460 nm) using an EnVision plate reader after 40 mins of incubation at ambient temperature.

[1] = Table A, human recombinant NAMPT, NMN formation, 60 min
[2] = Table A, human recombinant NAMPT, NMN formation, 60 min, read-out: EC50 Human

Sequence of human NAMPT (P43490 whole entry): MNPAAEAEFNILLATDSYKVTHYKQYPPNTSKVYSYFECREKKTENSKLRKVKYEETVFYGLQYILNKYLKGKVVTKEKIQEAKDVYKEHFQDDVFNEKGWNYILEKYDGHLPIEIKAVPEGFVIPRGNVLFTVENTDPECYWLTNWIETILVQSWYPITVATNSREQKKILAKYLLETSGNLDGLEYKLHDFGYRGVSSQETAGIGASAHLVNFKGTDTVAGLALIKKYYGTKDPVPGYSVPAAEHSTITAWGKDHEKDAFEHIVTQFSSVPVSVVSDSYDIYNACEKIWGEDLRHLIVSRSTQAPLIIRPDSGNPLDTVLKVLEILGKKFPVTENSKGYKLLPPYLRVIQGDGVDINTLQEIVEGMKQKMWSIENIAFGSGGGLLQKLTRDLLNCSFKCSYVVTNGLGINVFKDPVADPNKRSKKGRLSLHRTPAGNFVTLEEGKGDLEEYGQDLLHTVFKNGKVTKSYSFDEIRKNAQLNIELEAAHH

| AC1.4 Human [1] [µM] | EC50 [2] [µM] | SMILES | EC50 [µM] |
| --- | --- | --- | --- |
| 15.4 | 40.2 | COC(=O)C1CC2(CC(NC(=O)NCc3ccc(OC)cc3)C2)C1 (stereo not shown) [Compound 35, Methyl 6-(3-(4-methoxybenzyl)ureido)spiro[3.3]heptane-2-carboxylate] | – |
| 9.8 | 35.4 | COc1ccc(CNC(=O)NCCCCCNC(=O)OC(C)(C)C)cc1 [Compound 36, tert-butyl (5-(3-(4-methoxybenzyl)ureido)pentyl)carbamate] | – |
| 4.2 | 58.9 | COc1ccc(CNC(=O)NC2CC3(C2)CN(C(=O)OC(C)(C)C)C3)cc1 [Compound 37, tert-butyl 6-(3-(4-methoxybenzyl)ureido)-2-azaspiro[3.3]heptane-2-carboxylate] | – |
| 5.6 | 41.9 | COc1ccc(CNC(=O)NC2CC3(C2)CN(C(=O)Cc2ccccc2Cl)C3)cc1 [Compound 39, 1-(2-(2-(2-chlorophenyl)acetyl)-2-azaspiro[3.3]heptan-6-yl)-3-(4-methoxybenzyl)urea] | – |
| 17.2 | 24 | COc1ccc(CNC(=O)NC2CC3(C2)CN(C(=O)Cc2ccccc2OC)C3)cc1 [Compound 40, 1-(4-methoxybenzyl)-3-(2-(2-(2-methoxyphenyl)acetyl)-2-azaspiro[3.3]heptan-6-yl)urea] | – |
| 5.0 | 53.5 | COc1ccc(CNC(=O)NC2CC3(C2)CN(C(=O)Cc2ccccc2C(F)(F)F)C3)cc1 [Compound 41, 1-(4-methoxybenzyl)-3-(2-(2-(2-(trifluoromethyl)phenyl)acetyl)-2-azaspiro[3.3]heptan-6-yl)urea] | – |
| 10.7 | 42.2 | COc1ccc(CNC(=O)NC2CC3(C2)CN(C(=O)Cc2ccccc2C)C3)cc1 [Compound 42, 1-(4-methoxybenzyl)-3-(2-(2-(o-tolyl)acetyl)-2-azaspiro[3.3]heptan-6-yl)urea] | – |
| 4.9 | 46.4 | COc1ccc(CNC(=O)NC2CC3(C2)CC(C(=O)NC2(c4ccccc4)CC2)C3)cc1 (stereo not shown) [Compound 43, 6-(3-(4-methoxybenzyl)ureido)-N-(1-phenylcyclopropyl)spiro[3.3]heptane-2-carboxamide] | – |
| 10.1 | 36.5 | COc1ccc(CNC(=O)NC2CC3(C2)CC(C(=O)N2CCCC2c2ccccc2)C3)cc1 (stereo not shown) [Compound 44, 1-(4-methoxybenzyl)-3-(6-(2-phenylpyrrolidine-1-carbonyl)spiro[3.3]heptan-2-yl)urea] | – |
| 6.8 | 41.3 | COc1ccc(CNC(=O)NC2CC3(C2)CC(C(=O)N[C@H](CO)c2ccccc2)C3)cc1 (stereo partly drawn) [Compound 46, (S)-N-(2-hydroxy-1-phenylethyl)-6-(3-(4-methoxybenzyl)ureido)spiro[3.3]heptane-2-carboxamide] | – |
| 4.7 | 52.1 | COc1ccc(CNC(=O)NC2CC3(C2)CC(C(=O)N2CCC2c2ccccc2)C3)cc1 (stereo not shown) [Compound 48, 1-(4-methoxybenzyl)-3-(6-(2-phenylazetidine-1-carbonyl)spiro[3.3]heptan-2-yl)urea] | – |
| 6.6 | 46.8 | COc1ccc(CNC(=O)NC2CC3(C2)CC(C(=O)NCc2cccnc2)C3)cc1 (stereo not shown) [Compound 49, 6-(3-(4-methoxybenzyl)ureido)-N-(pyridin-3-ylmethyl)spiro[3.3]heptane-2-carboxamide] | – |
| 17.9 | 32.8 | COc1ccc(CNC(=O)NC2CC3(C2)CC(C(=O)NCc2ccncc2)C3)cc1 (stereo not shown) [Compound 50, 6-(3-(4-methoxybenzyl)ureido)-N-(pyridin-4-ylmethyl)spiro[3.3]heptane-2-carboxamide] | – |
| 1.5 | 53.1 | COc1ccc(CNC(=O)NC2CC3(C2)CC(C(=O)N(C)Cc2ccccc2)C3)cc1 (stereo not shown) [Compound 51, N-benzyl-6-(3-(4-methoxybenzyl)ureido)-N-methylspiro[3.3]heptane-2-carboxamide] | – |
| 4.2 | 43.8 | COc1ccc(CNC(=O)NC2CC3(CC(CN4CCCC4c4ccccc4)C3)C2)cc1 (stereo not shown) [Compound 52, 1-(4-methoxybenzyl)-3-(6-((2-phenylpyrrolidin-1-yl)methyl)spiro[3.3]heptan-2-yl)urea] | – |
| 0.3 | 8.5 | COc1ccc(CNC(=O)NC2CC3(C2)CC(C(=O)N(C)[C@H](C)c2ccccc2F)C3)cc1 (stereo partly drawn) [Compound 53, (R)-N-(1-(2-fluorophenyl)ethyl)-6-(3-(4-methoxybenzyl)ureido)-N-methylspiro[3.3]heptane-2-carboxamide] | – |
| 1.4 | 29.4 | COc1ccc(CNC(=O)NC2CC3(C2)CC(C(=O)NCC(C)(C)c2ccccc2C)C3)cc1 (stereo not shown) [Compound 54, 6-(3-(4-methoxybenzyl)ureido)-N-(2-methyl-2-(o-tolyl)propyl)spiro[3.3]heptane-2-carboxamide] | – |
| 1.1 | 40.6 | COc1ccc(CNC(=O)NC2CC3(C2)CC(C(=O)NCC(C)(C)c2ccccc2F)C3)cc1 (stereo not shown) [Compound 55, N-(2-(2-fluorophenyl)-2-methylpropyl)-6-(3-(4-methoxybenzyl)ureido)spiro[3.3]heptane-2-carboxamide] | – |
| 9.0 | 47.7 | COc1ccc(CNC(=O)NC2CC3(C2)CC(C(=O)NCc2ccccn2)C3)cc1 (stereo not shown) [Compound 56, 6-(3-(4-methoxybenzyl)ureido)-N-(pyridin-2-ylmethyl)spiro[3.3]heptane-2-carboxamide] | – |
| 1.0 | 25.8 | COc1ccc(CNC(=O)NC2CC3(C2)CC(C(=O)N2CCC(c4ccccc4)C2)C3)cc1 (stereo not shown) [Compound 57, 1-(4-methoxybenzyl)-3-(6-(3-phenylpyrrolidine-1-carbonyl)spiro[3.3]heptan-2-yl)urea] | – |
| 11.3 | 39.6 | COc1ccc(CNC(=O)NC2CC3(C2)CC(C(=O)N2CCCC2c2ccncc2)C3)cc1 (stereo not shown) [Compound 58, 1-(4-methoxybenzyl)-3-(6-(2-(pyridin-4-yl)pyrrolidine-1-carbonyl)spiro[3.3]heptan-2-yl)urea] | – |
| 11.2 | 40.5 | COc1ccc(CNC(=O)NC2CC3(C2)CC(C(=O)N2CCC[C@@H]2c2cccnc2)C3)cc1 (stereo partly drawn) [Compound 59, (R)-1-(4-methoxybenzyl)-3-(6-(2-(pyridin-3-yl)pyrrolidine-1-carbonyl)spiro[3.3]heptan-2-yl)urea] | – |
| 0.3 | 6.1 | COc1ccc(CNC(=O)NC2CC3(C2)CC(C(=O)N(C)[C@@H](C)c2ccccc2F)C3)cc1 (stereo partly drawn) [Compound 60, (S)-N-(1-(2-fluorophenyl)ethyl)-6-(3-(4-methoxybenzyl)ureido)-N-methylspiro[3.3]heptane-2-carboxamide] | – |
| 2.5 | 34.9 | COc1ccc(CNC(=O)NC2CC3(C2)CC(C(=O)N2CC(c4ccccc4)C2)C3)cc1 (stereo not shown) [Compound 61, 1-(4-methoxybenzyl)-3-(6-(3-phenylazetidine-1-carbonyl)spiro[3.3]heptan-2-yl)urea] | – |
| 1.2 | 23.6 | COc1ccc(CNC(=O)NC2CC3(C2)CC(C(=O)N2CCN(C(=O)c4ccccc4)CC2)C3)cc1 (stereo not shown) [Compound 62, 1-(6-(4-benzoylpiperazine-1-carbonyl)spiro[3.3]heptan-2-yl)-3-(4-methoxybenzyl)urea] | – |
| 4.4 | 4.4 | COc1ccc(CNC(=O)NC2CC3(C2)CC(C(=O)N[C@H]2C[C@H](c4ccccc4)C2)C3)cc1 (stereo partly shown) [Compound 63, 6-(3-(4-methoxybenzyl)ureido)-N-((1r,3r)-3-phenylcyclobutyl)spiro[3.3]heptane-2-carboxamide] | – |
| 1.4 | 50.1 | COc1ccc(CNC(=O)NC2CC3(C2)CC(C(=O)NCC(C)(C)c2ccccc2OC)C3)cc1 (stereo not shown) [Compound 64, 6-(3-(4-methoxybenzyl)ureido)-N-(2-(2-methoxyphenyl)-2-methylpropyl)spiro[3.3]heptane-2-carboxamide] | – |
| 2.6 | 50 | COc1ccc(CNC(=O)NC2CC3(C2)CC(C(=O)NCC(C)(C)c2ccccn2)C3)cc1 (stereo not shown) [Compound 65, 6-(3-(4-methoxybenzyl)ureido)-N-(2-methyl-2-(pyridin-2-yl)propyl)spiro[3.3]heptane-2-carboxamide] | – |
| 3.3 | 37.8 | COc1ccc(CNC(=O)NC2CC3(C2)CC(C(=O)NCC(C)(C)c2cccnc2)C3)cc1 (stereo not shown) [Compound 66, 6-(3-(4-methoxybenzyl)ureido)-N-(2-methyl-2-(pyridin-3-yl)propyl)spiro[3.3]heptane-2-carboxamide] | – |

| SMILES | AC1.4 Human [1] [µM] | EC50 [2] [µM] | EC50 [µM] |
| --- | --- | --- | --- |
| COc1ccc(CNC(=O)NC2CC3(C2)CN(C(=O)Cc2ccccc2F)C3)cc1 [Compound 38, 1-(2-(2-(2-fluorophenyl)acetyl)-2-azaspiro[3.3]heptan-6-yl)-3-(4-methoxybenzyl)urea] | 13.7 | – | 43.7 |
| COc1ccc(CNC(=O)NC2CC3(C2)CC(C(=O)N[C@H](C)c2ccccc2)C3)cc1 (stereo partly drawn) [Compound 45, (R)-6-(3-(4-methoxybenzyl)ureido)-N-(1-phenylethyl)spiro[3.3]heptane-2-carboxamide] | 6.6 | – | 51.7 |
| COc1ccc(CNC(=O)NC2CC3(C2)CC(C(=O)N[C@@H](C)c2ccccc2)C3)cc1 (stereo partly drawn) [Compound 47, (S)-6-(3-(4-methoxybenzyl)ureido)-N-(1-phenylethyl)spiro[3.3]heptane-2-carboxamide] | 6.5 | – | 40.6 |
